Laboratory results: patent US20220363686A1 (AiCuris GmbH & Co. KG, priority 2018, published 2022)
Where two headings read alike, the source gives them in different places.

Experiments:
[1] = biological target: HBV core protein (C-terminal truncated core protein containing 149 amino acids of the N-terminal assembly domain) (UniProt P03146); test: Biochemical capsid assembly assay (fluorescence quenching); design: rows headed: Assembly Activity; other: BODIPY-FL labelled core protein, assembly started with NaCl, read after 6 min; settings: read-out: Assembly Activity; BODIPY-FL labelled core protein, assembly started with NaCl, read after 6 min
HBV core protein (C-terminal truncated core protein containing 149 amino acids of the N-terminal assembly domain), sequence (P03146 whole entry, the tested form may be a part): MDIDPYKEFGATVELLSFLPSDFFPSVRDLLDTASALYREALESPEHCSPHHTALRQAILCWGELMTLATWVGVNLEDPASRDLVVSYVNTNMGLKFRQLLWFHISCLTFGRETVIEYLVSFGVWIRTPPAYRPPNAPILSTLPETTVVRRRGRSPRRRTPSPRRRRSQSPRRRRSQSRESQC
Method in brief: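 N-terminal assembly domain (residues 1–149) plus C-terminal Cys150, E. coli-expressed, BODIPY-FL-maleimide labelled, used at 1.0–2.0 μM in 50 mM HEPES pH 7.5 with 0.5% DMSO. Assembly started with NaCl ([…]); fluorescence quenching (ex 477/em 525 nm) read after 6 min. 8-point compound series; EC50 by non-linear regression.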

HBV = test: Determination of HBV DNA from the supernatants of HepAD38 cells (anti-HBV activity); type: cell-based, hepatitis B virus; settings: Hepatitis B virus, HePAD38, 144 h, HBV DNA in HepAD38 supernatant, day 6, qPCR, read-out: Cell Activity
Method in brief: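 EC50 derived by non-linear regression of relative HBV DNA copy numbers, measured by qPCR (plasmid standards) in day-6 filtered supernatants. Before this, HepAD38 cells were exposed to serial half-log compound dilutions without tetracycline, releasing viral expression; cultures kept at 37 °C, 5% CO2.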

[2] = Cell viability assay (AlamarBlue); settings: human, HepAD38 cells

| Compound | IC50 [1] [µM] | EC50 (HBV) [µM] | CC50 at 6 days [2] [µM] | EC50 (HBV; printed as number instead of class symbol) [µM] |
| --- | --- | --- | --- | --- |
| C[C@@H](NC(=O)c1cnn2c1CN(C(=O)c1cc3ccccc3[nH]1)CC2)C(F)(F)F [Example 79, 5-(1H-indole-2-carbonyl)-N-[(2R)-1,1,1-trifluoropropan-2-yl]-4H,5H,6H,7H-pyrazolo[1,5-a]pyrazine-3-carboxamide] | < 5 | < 1 | > 10 | – |
| Cc1cc(F)cc2[nH]c(C(=O)N3CCn4ncc(C(=O)N5CCC(O)CC56CC6)c4C3)cc12 (stereo not drawn) [Example 121, 4-[5-(6-fluoro-4-methyl-1H-indole-2-carbonyl)-4H,5H,6H,7H-pyrazolo[1,5-a]pyrazine-3-carbonyl]-4-azaspiro[2.5]octan-7-ol] | < 5 | < 1 | > 10 | – |
| O=C(NC1(C(F)(F)F)CC1)c1cnn2c1CN(C(=O)c1cc3ccccc3[nH]1)CC2 [Example 101, 5-(1H-indole-2-carbonyl)-N-[1-(trifluoromethyl)cyclopropyl]-4H,5H,6H,7H-pyrazolo[1,5-a]pyrazine-3-carboxamide] | < 5 | < 1 | > 10 | – |
| COCC1(N(C)C(=O)c2cnn3c2CN(C(=O)c2cc4ccccc4[nH]2)C(C)C3)CC1 (stereo not drawn) [Example 1, 5-(1H-indole-2-carbonyl)-N-[1-(methoxymethyl)cyclopropyl]-N,6-dimethyl-4H,5H,6H,7H-pyrazolo[1,5-a]pyrazine-3-carboxamide] | < 5 | < 1 | > 10 | – |
| CC1Cn2ncc(C(=O)N(C)C3(COC(F)F)CC3)c2CN1C(=O)c1cc2ccccc2[nH]1 (stereo not drawn) [Example 20, N-{1-[(difluoromethoxy)methyl]cyclopropyl}-5-(1H-indole-2-carbonyl)-N,6-dimethyl-4H,5H,6H,7H-pyrazolo[1,5-a]pyrazine-3-carboxamide] | < 5 | < 1 | > 10 | – |
| O=C(c1cc2c(Cl)cccc2[nH]1)N1CCn2ncc(C(=O)N3CCCOCC34CC4)c2C1 [Example 110, 4-[5-(4-chloro-1H-indole-2-carbonyl)-4H,5H,6H,7H-pyrazolo[1,5-a]pyrazine-3-carbonyl]-8-oxa-4-azaspiro[2.6]nonane] | < 5 | < 1 | > 10 | – |
| O=C(c1cc2ccccc2[nH]1)N1CCn2ncc(-c3cscn3)c2C1 [Example 66, 2-[3-(1,3-thiazol-4-yl)-4H,5H,6H,7H-pyrazolo[1,5-a]pyrazine-5-carbonyl]-1H-indole] | < 5 | < 1 | > 10 | – |
| CN(CCOC(F)F)C(=O)c1cnn2c1CN(C(=O)c1cc3ccccc3[nH]1)CC2 [Example 62, N-[2-(difluoromethoxy)ethyl]-5-(1H-indole-2-carbonyl)-N-methyl-4H,5H,6H,7H-pyrazolo[1,5-a]pyrazine-3-carboxamide] | < 5 | – | > 10 | > 10 |
| CN(C(=O)c1cnn2c1CN(C(=O)c1cc3c(F)ccc(F)c3[nH]1)CC2)C1(COC(F)F)CC1 [Example 24, 5-(4,7-difluoro-1H-indole-2-carbonyl)-N-{1-[(difluoromethoxy)methyl]cyclopropyl}-N-methyl-4H,5H,6H,7H-pyrazolo[1,5-a]pyrazine-3-carboxamide] | < 5 | < 1 | > 10 | – |
| O=C(c1cc2ccccc2[nH]1)N1CCn2ncc(C3(O)CC(c4ccccc4)C3)c2C1 (stereo not drawn) [Example 51, 1-[5-(1H-indole-2-carbonyl)-4H,5H,6H,7H-pyrazolo[1,5-a]pyrazin-3-yl]-3-phenylcyclobutan-1-ol] | 5 to 10 | 1 to 10 | > 10 | – |
| CC1Cn2ncc(C(=O)NC3(COC(F)F)CC3)c2CN1C(=O)c1cc2cc(F)c(Cl)cc2[nH]1 (stereo not drawn) [Example 93, 5-(6-chloro-5-fluoro-1H-indole-2-carbonyl)-N-{1-[(difluoromethoxy)methyl]cyclopropyl}-6-methyl-4H,5H,6H,7H-pyrazolo[1,5-a]pyrazine-3-carboxamide] | < 5 | < 1 | > 10 | – |
| C[C@@H](NC(=O)c1cnn2c1CN(C(=O)c1cc3c(Cl)cccc3[nH]1)CC2)C(F)(F)F [Example 115, 5-(4-chloro-1H-indole-2-carbonyl)-N-[(2R)-1,1,1-trifluoropropan-2-yl]-4H,5H,6H,7H-pyrazolo[1,5-a]pyrazine-3-carboxamide] | < 5 | < 1 | > 10 | – |
| O=C(c1cc2ccccc2[nH]1)N1CCn2ncc(S(=O)(=O)NCC3CCOC3)c2C1 (stereo not drawn) [Example 33, 5-(1H-indole-2-carbonyl)-N-[(oxolan-3-yl)methyl]-4H,5H,6H,7H-pyrazolo[1,5-a]pyrazine-3-sulfonamide] | 5 to 10 | 1 to 10 | > 10 | – |
| Cc1c(F)ccc2[nH]c(C(=O)N3CCn4ncc(C(=O)N5CCC(O)CC56CC6)c4C3)cc12 (stereo not drawn) [Example 120, 4-[5-(5-fluoro-4-methyl-1H-indole-2-carbonyl)-4H,5H,6H,7H-pyrazolo[1,5-a]pyrazine-3-carbonyl]-4-azaspiro[2.5]octan-7-ol] | < 5 | < 1 | > 10 | – |
| CC(C)(C)NC(=O)c1cnn2c1CN(C(=O)c1cc3ccccc3[nH]1)CC2 [Example 87, N-tert-butyl-5-(1H-indole-2-carbonyl)-4H,5H,6H,7H-pyrazolo[1,5-a]pyrazine-3-carboxamide] | < 5 | < 1 | > 10 | – |
| CC(COC(F)F)NC(=O)c1cnn2c1CN(C(=O)c1cc3ccccc3[nH]1)CC2 (stereo not drawn) [Example 89, N-[1-(difluoromethoxy)propan-2-yl]-5-(1H-indole-2-carbonyl)-4H,5H,6H,7H-pyrazolo[1,5-a]pyrazine-3-carboxamide] | < 5 | < 1 | > 10 | – |
| CC1Cn2ncc(C(=O)NC3(COC(F)F)CC3)c2CN1C(=O)c1cc2ccccc2[nH]1 (single isomer, unassigned) [Example 131, N-{1-[(difluoromethoxy)methyl]cyclopropyl}-5-(1H-indole-2-carbonyl)-6-methyl-4H,5H,6H,7H-pyrazolo[1,5-a]pyrazine-3-carboxamide] | < 5 | < 1 | > 10 | – |
| Cc1c(F)ccc2[nH]c(C(=O)N3CCn4ncc(C(=O)N[C@H](C)C(F)(F)F)c4C3)cc12 [Example 113, 5-(5-fluoro-4-methyl-1H-indole-2-carbonyl)-N-[(2R)-1,1,1-trifluoropropan-2-yl]-4H,5H,6H,7H-pyrazolol[1,5-a]pyrazine-3-carboxamide] | < 5 | < 1 | > 10 | – |
| O=C(c1cc2ccccc2[nH]1)N1CCn2ncc(S(=O)(=O)NC3CCOC3)c2C1 (stereo not drawn) [Example 30, 5-(1H-indole-2-carbonyl)-N-(oxolan-3-yl)-4H,5H,6H,7H-pyrazolo[1,5-a]pyrazine-3-sulfonamide] | < 5 | < 1 | > 10 | – |
| CN(C(=O)c1cnn2c1CN(C(=O)c1cc3ccccc3[nH]1)CC2)C1CC1 [Example 74, N-cyclopropyl-5-(1H-indole-2-carbonyl)-N-methyl-4H,5H,6H,7H-pyrazolo[1,5-a]pyrazine-3-carboxamide] | < 5 | < 1 | > 10 | – |
| CN(CCO)C(=O)c1cnn2c1CN(C(=O)c1cc3c(F)cc(F)cc3[nH]1)CC2 [Example 129, 5-(4,6-difluoro-1H-indole-2-carbonyl)-N-(2-hydroxyethyl)-N-methyl-4H,5H,6H,7H-pyrazolo[1,5-a]pyrazine-3-carboxamide] | < 5 | < 1 | > 10 | – |
| Cc1cc(F)cc2[nH]c(C(=O)N3CCn4ncc(C(=O)NC5(COC(F)F)CC5)c4C3)cc12 [Example 102, N-{1-[(difluoromethoxy)methyl]cyclopropyl}-5-(6-fluoro-4-methyl-1H-indole-2-carbonyl)-4H,5H,6H,7H-pyrazolo[1,5-a]pyrazine-3-carboxamide] | < 5 | < 1 | > 10 | – |
| C[C@@H](NC(=O)c1cnn2c1CN(C(=O)c1cc3c(F)c(F)ccc3[nH]1)CC2)C(F)(F)F [Example 114, 5-(4,5-difluoro-1H-indole-2-carbonyl)-N-[(2R)-1,1,1-trifluoropropan-2-yl]-4H,5H,6H,7H-pyrazolo[1,5-a]pyrazine-3-carboxamide] | < 5 | < 1 | > 10 | – |
| Cc1cc(F)cc2[nH]c(C(=O)N3CCn4ncc(C5CCC5)c4C3)cc12 [Example 4, 2-{3-cyclobutyl-4H,5H,6H,7H-pyrazolo[1,5-a]pyrazine-5-carbonyl}-6-fluoro-4-methyl-1H-indole] | < 5 | < 1 | > 10 | – |
| O=C(c1cc2ccccc2[nH]1)N1CCn2ncc(C(=O)N3CCC4CC43)c2C1 (stereo not drawn) [Example 48, 2-(3-{2-azabicyclo[3.1.0]hexane-2-carbonyl}-4H,5H,6H,7H-pyrazolo[1,5-a]pyrazine-5-carbonyl)-1H-indole] | < 5 | 1 to 10 | > 10 | – |
